≈ marks a conversion by molar mass, not a printed value.
tested on: Mycobacterium tuberculosis; assay: Antimycobacterial activity against Mycobacterium tuberculosis H37Rv ATCC 27294 after 7 days by microplate alamar blue assay; format: functional; settings: H37Rv ATCC 27294, 168 h

Structure (SMILES)	MIC90 [µg/mL]
O=C(c1ccc([N+](=O)[O-])o1)N1CCc2ccccc21	0.482 (≈ 1.87 µM)
O=C(c1ccc([N+](=O)[O-])o1)N1CC/C(=N\OCc2ccccc2)C1	0.291 (≈ 0.884 µM)
O=C(c1ccc([N+](=O)[O-])o1)N1CCC(=NOCc2ccc(C(F)(F)F)cc2)CC1	> 32
CON=C1CCN(C(=O)c2ccc([N+](=O)[O-])o2)CC1	1.93 (≈ 7.23 µM)
O=C(c1ccc([N+](=O)[O-])o1)N1CCC(=NOCc2ccc([N+](=O)[O-])cc2)CC1	> 32
CCON=C1CCN(C(=O)c2ccc([N+](=O)[O-])o2)CC1	14.1 (≈ 50.3 µM)
O=C(c1ccc([N+](=O)[O-])o1)N1CCC(=NOCc2ccccc2)CC1	0.158 (≈ 0.46 µM)
O=C(c1ccc([N+](=O)[O-])o1)N1CCC(=NOCc2ccc(OC(F)(F)F)cc2)CC1	> 32
CO/N=C1\CCN(C(=O)c2ccc([N+](=O)[O-])o2)C1	1.83 (≈ 7.22 µM)
CCO/N=C1\CCN(C(=O)c2ccc([N+](=O)[O-])o2)C1	> 32
O=C(c1ccc([N+](=O)[O-])o1)N1CCC(=NOCc2ccc(F)cc2)CC1	5.88 (≈ 16.3 µM)
NNC(=O)c1ccncc1 [ISONIAZID]	0.035 (≈ 0.255 µM)
CO[C@H]1/C=C/O[C@@]2(C)Oc3c(C)c(O)c4c(O)c(c(/C=N/N5CCN(C)CC5)c(O)c4c3C2=O)NC(=O)/C(C)=C\C=C\[C@H](C)[C@H](O)[C@@H](C)[C@@H](O)[C@@H](C)[C@H](OC(C)=O)[C@@H]1C [RIFAMPIN]	0.059 (≈ 0.0717 µM)

From ChEMBL document CHEMBL4229535, “Design, synthesis and evaluation of oxime-functionalized nitrofuranylamides as novel antitubercular agents” (2018)
